According to patent publication US11000511B2, “Chemical compounds as antibiotics” (priority 2017, dated 2021):

Columns and labels:
[1] = target: T1, LasB elastase activity in dialysed supernatant from P. aeruginosa strain PA01 (Pseudomonas aeruginosa, UniProt P14756); experiment: Elastin Congo Red assay to determine % inhibition (Assay 1); assay type: biochemical; details: read-out: Elastin hydrolysis % inhibition @ 50/25 μM inhibitor concentration Assay 1
T1 construct: uses as source of enzyme dialysed supernatant from P. aeruginosa; endogenous in cells; host or cells: P. aeruginosa strain PA01 culture supernatant, filtered and dialysed
T1 sequence (P14756 198-498): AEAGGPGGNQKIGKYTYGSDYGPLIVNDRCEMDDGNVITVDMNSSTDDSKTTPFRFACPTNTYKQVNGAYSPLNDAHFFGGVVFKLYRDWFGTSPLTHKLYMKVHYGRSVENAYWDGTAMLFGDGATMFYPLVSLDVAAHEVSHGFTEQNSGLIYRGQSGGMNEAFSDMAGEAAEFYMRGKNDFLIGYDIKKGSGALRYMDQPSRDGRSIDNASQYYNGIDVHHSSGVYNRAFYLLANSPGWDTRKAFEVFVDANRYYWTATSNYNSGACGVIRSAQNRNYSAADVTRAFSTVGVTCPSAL
Description: (§1) Experiments were therefore conducted (1) to measure the potency of inhibition of compounds of the invention against purified Pseudomonas aeruginosa LasB enzyme and also experiments were conducted (2) to measure the ability of compounds of the invention to inhibit LasB-catalysed elastin degradation. The first assay uses a commercial fluorescent synthetic peptide and purified LasB enzyme. The LasB hydrolysis kinetics are measured allowing the determination of the IC50 and Ki of the inhibitors; the second is a more physiological assay using dialysed Pseudomonas aeruginosa supernatant as source of enzyme, plus its natural substrate Elastin. It is an “end point assay” that determines the percentage of LasB inhibition by each compound for one particular time point and inhibitor concentration. Technical details are described below:
The Elastin assay uses as source of enzyme dialysed supernatant from P. aeruginosa and the elastin congo red as substrate. The natural LasB substrate, elastin, is complexed with the congo red dye (Elastin Congo Red, ECR). The elastolysis activity from the culture supernatant will degrade elastin and release the congo red dye into the supernatant. This red dye release can be measured with a spectrophotometer. Some compounds of Formula (I) were assessed using the method of Assay 1 (described below). Other compounds of Formula (I) were assessed using the alternative but equivalent method of Assay 2 (described below).
Method (Assay 1): To determine LasB elastase activity and assess compound inhibition, an overnight culture of P. aeruginosa strain PA01 is diluted thousand-fold in LB medium. This diluted solution is incubated during 19 hours in a shaking incubator. Culture supernatants are recovered by centrifugation and filtrated through a […] filter. These supernatants are dialysed (filtration molecules <20 kDa) into a 50 mM Tris pH 7.4, 2.5 mM CaCl2 solution at 4° C. under agitation for 24 hours. Supernatant dialysed is then mixed volume/volume with the ECR suspension (20 mg/mL of ECR in 100 mM Tris buffer supplemented with 1 mM CaCl2) supplemented with TritonX 100 (final concentration of 0.01%) in presence of different concentrations of compound (routinely 50 and 25 μM). The mixed reaction is then incubated for 24 hours in a 37° shaking incubator. As a negative control, the mixed supernatant is replaced by Tris solution (50 mM Tris pH 7.4, 2.5 mM CaCl2). The reaction supernatant is recovered by centrifugation and the release of congo red is measured by its absorbance at OD520. Percentage inhibition is determined using the following equation: (OD520 value of DMSO SN−OD520 value of LB)−(OD520 value of Compound SN−OD520 value of LB)/(OD520 value of DMSO SN−OD520 value of LB)×100.

[2] = target: T2, purified LasB protein from P. aeruginosa (Pseudomonas aeruginosa, UniProt P14756); experiment: Fluorometric assay to determine Ki (Assay 1); assay type: biochemical; details: Ki (μM) Assay 1, purified LasB, substrate Abz-Ala-Gly-Leu-Ala-p-Nitro-Benzyl-Amide 250 μM, Ki calculated from IC50; inhibitor 0.006 to 200 μM
T2 construct: purchased Merck or Charles River Laboratories
T2 sequence (P14756 198-498): as above
Description: as §1
This assay uses commercially available substrate (Abz-Ala-Gly-Leu-Ala-p-Nitro-Benzyl-Amide (Ex: 340 nm, Em: 415 nm) from Peptide International) and purified LasB protein from P. aeruginosa (provided by Merck or Charles River Laboratories). It is performed to determine LasB elastase activity and assess compound inhibition in 96-well plate format. Some compounds of Formula (I) were assessed using the method of Assay 1 (described below). Other compounds of Formula (I) were assessed using the alternative but equivalent method of Assay 2 (described below).
Method: 10 to 140 ng/ml purified LasB is incubated with 250 μM Abz-Ala-Gly-Leu-Ala-p-Nitro-Benzyl-Amide in 50 mM Tris-HCl pH 7.4, 2.5 mM CaCl2), 0.01% of Triton X100 at 37° C. LasB activity (corresponding to fluorescence emission induced by substrate hydrolysis) is measured over 30 min at 37° C. with a fluorescence plate reader such as the Perkin Elmer Envision or similar. Different range of inhibitor concentrations are routinely assessed depending of inhibitor potency from 0.006 to 200 μM (Assay 1; 2-fold dilutions series) or from 0.0016 to 200 μM (Assay 2; 2-fold dilutions series) in order to determine IC50.
The equation used to calculate the Ki from IC50 is: Ki=IC50/(1+([S]/Km)) where [S]=250 μM and Km=214 μM.

SMILES: O=C(O)CC1(C(=O)NC2CCN(c3cccc(Cl)c3)C2)Cc2ccccc2C1 (stereo not shown) [Example 8, 2-[2-[[1-(3-chlorophenyl)pyrrolidin-3-yl]carbamoyl]indan-2-yl]acctic acid]
- inhibition at 50 µM [1]: > 60%
- Ki [2]: < 0.3 µM

SMILES: O=C(O)CC1(C(=O)NCc2nc3c(I)cccc3s2)Cc2ccccc2C1 [Example 63, 2-(2-(((4-iodobenzo[d]thiazol-2-yl)methyl)carbamoyl)-2,3-dihydro-1H-inden-2-yl)acetic acid]
- inhibition at 50 µM [1]: > 60%
- Ki [2]: < 0.3 µM

SMILES: CN(C)C1CN(c2ccc3sc(CNC(=O)C4(CC(=O)O)Cc5ccccc5C4)nc3c2)C1 [Example 74, 2-[2-[[5-[3-(dimethylamino)azetidin-1-yl]-1,3-benzothiazol-2-yl]methylcarbamoyl]indan-2-yl]acetic acid]
- inhibition at 50 µM [1]: > 60%
- Ki [2]: < 0.3 µM

SMILES: CN1CC2(C1)CN(c1ccc3nc(CNC(=O)C4(CC(=O)O)Cc5ccccc5C4)sc3c1)C2 [Example 71, 2-[2-[[6-(6-methyl-2,6-diazaspiro[3.3]heptan-2-yl)-1,3-benzothiazol-2-yl]methylcarbamoyl]indan-2-yl]acetic acid]
- inhibition at 50 µM [1]: > 60%
- Ki [2]: < 0.3 µM

SMILES: O=C(O)CC1(C(=O)NCc2nc3cc(Cl)ccc3[nH]2)Cc2ccccc2C1 [Example 1, 2-(2-{[(5-Chloro-1H-1,3-benzodiazol-2-yl)methyl]carbamoyl}-2,3-dihydro-1H-inden-2-yl)acetic acid]
- inhibition at 50 µM [1]: 30 to 60%
- Ki [2]: 0.3 to 2 µM

SMILES: C[N+](C)(C)CCNc1ccc2sc(CNC(=O)C3(CC(=O)[O-])Cc4ccccc4C3)nc2c1 [Example 77, 2-[2-[[5-[2-(trimethylammonio)ethylamino]-1,3-benzothiazol-2-yl]methylcarbamoyl]indan-2-yl]acetate]
- Ki [2]: 0.3 to 2 µM

SMILES: O=C(O)CC1(C(=O)NCc2nccs2)Cc2ccccc2C1 [Example 54, 2-(2-((thiazol-2-ylmethyl)carbamoyl)-2,3-dihydro-1H-inden-2-yl)acetic acid]
- inhibition at 50 µM [1]: > 60%
- Ki [2]: 0.3 to 2 µM

SMILES: CN(C)CC#Cc1ccc2nc(CNC(=O)C3(CC(=O)O)Cc4ccccc4C3)sc2c1 [Example 35, 2-[2-[[6-[3-(dimethylamino)prop-1-ynyl]-1,3-benzothiazol-2-yl]methylcarbamoyl]indan-2-yl]acetic acid]
- inhibition at 50 µM [1]: > 60%
- Ki [2]: < 0.3 µM

SMILES: Cn1cnc(CNC(=O)C2(CC(=O)O)Cc3ccccc3C2)c1 [Example 21, 2-[2-[(1-methylimidazol-4-yl)methylcarbamoyl]indan-2-yl]acetic acid]
- inhibition at 50 µM [1]: 30 to 60%
- Ki [2]: 2 to 10 µM

SMILES: O=C(O)CC1(C(=O)NCc2nc3cc(Cl)ccc3s2)Cc2ccccc2C1 [Example 25, 2-[2-[(5-chloro-1,3-benzothiazol-2-yl)methylcarbamoyl]indan-2-yl]acetic acid]
- inhibition at 50 µM [1]: > 60%
- Ki [2]: < 0.3 µM

SMILES: CCOc1cccc2sc(CNC(=O)C3(CC(=O)O)Cc4ccccc4C3)nc12 [Example 64, 2-(2-(((4-ethoxybenzo[d]thiazol-2-yl)methyl)carbamoyl)-2,3-dihydro-1H-inden-2-yl)acetic acid]
- inhibition at 50 µM [1]: > 60%
- Ki [2]: 0.3 to 2 µM

SMILES: O=C(O)CC1(C(=O)NCC2COc3ccccc3O2)Cc2ccccc2C1 (stereo not shown) [Example 17, 2-[2-(2,3-dihydro-1,4-benzodioxin-3-ylmethylcarbamoyl)indan-2-yl]acetic acid]
- inhibition at 50 µM [1]: 30 to 60%
- Ki [2]: 0.3 to 2 µM

SMILES: NCCNc1ccc2sc(CNC(=O)C3(CC(=O)O)Cc4ccccc4C3)nc2c1 [Example 72, 2-[2-[[5-(2-aminoethylamino)-1,3-benzothiazol-2-yl]methylcarbamoyl]indan-2-yl]acetic acid]
- inhibition at 50 µM [1]: > 60%
- Ki [2]: 0.3 to 2 µM

SMILES: C[N+](C)(C)CCc1ccc2sc(CNC(=O)C3(CC(=O)[O-])Cc4ccccc4C3)nc2c1 [Example 98, 2-[2-[[5-[2-(trimethylammonio)ethyl]-1,3-benzothiazol-2-yl]methylcarbamoyl]indan-2-yl]acetate]
- Ki [2]: 0.3 to 2 µM

SMILES: O=C(O)CC1(C(=O)NCCc2nc3ccccc3o2)Cc2ccccc2C1 [Example 31, 2-[2-[2-(1,3-benzoxazol-2-yl)ethylcarbamoyl]indan-2-yl]acetic acid]
- Ki [2]: 2 to 10 µM

SMILES: CC(C)(N)c1nnc([C@H](Cc2c[nH]c3ccccc23)NC(=O)C2(CC(=O)O)Cc3ccccc3C2)o1 [Example 119, (S)-2-(2-((1-(5-(2-aminopropan-2-yl)-1,3,4-oxadiazol-2-yl)-2-(1H-indol-3-yl)ethyl)carbamoyl)-2,3-dihydro-1H-inden-2-yl)acetic acid]
- Ki [2]: 0.3 to 2 µM

SMILES: CN(C)Cc1ccc2nc(CNC(=O)C3(CC(=O)O)Cc4ccccc4C3)sc2c1 [Example 81, 2-[2-[[6-[(dimethylamino)methyl]-1,3-benzothiazol-2-yl]methylcarbamoyl]indan-2-yl]acetic acid]
- Ki [2]: 2 to 10 µM

SMILES: CN(C)Cc1ccc2sc(CNC(=O)C3(CC(=O)O)Cc4ccccc4C3)nc2c1 [Example 84, 2-[2-[[5-[(dimethylamino)methyl]-1,3-benzothiazol-2-yl]methylcarbamoyl]indan-2-yl]acetic acid]
- Ki [2]: 0.3 to 2 µM

SMILES: CN(C)CCc1ccc2sc(CNC(=O)C3(CC(=O)O)Cc4ccccc4C3)nc2c1 [Example 97, 2-[2-[[5-[2-(dimethylamino)ethyl]-1,3-benzothiazol-2-yl]methylcarbamoyl]indan-2-yl]acetic acid]
- Ki [2]: 0.3 to 2 µM

SMILES: NCCc1ccc2sc(CNC(=O)C3(CC(=O)O)Cc4ccccc4C3)nc2c1 [Example 83, 2-[2-[[5-(2-aminoethyl)-1,3-benzothiazol-2-yl]methylcarbamoyl]indan-2-yl]acetic acid]
- Ki [2]: 0.3 to 2 µM

SMILES: C[N+](C)(C)Cc1ccc2sc(CNC(=O)C3(CC(=O)[O-])Cc4ccccc4C3)nc2c1 [Example 85, 2-[2-[[5-[(trimethylammonio)methyl]-1,3-benzothiazol-2-yl]methylcarbamoyl]indan-2-yl]acetate]
- Ki [2]: 0.3 to 2 µM

SMILES: O=C(O)CC1(C(=O)NCc2nc3ccccc3s2)Cc2cc(Cl)c(Cl)cc2C1 [Example 121, 2-(2-((benzo[d]thiazol-2-ylmethyl)carbamoyl)-5,6-dichloro-2,3-dihydro-1H-inden-2-yl)acetic acid]
- Ki [2]: 0.3 to 2 µM

SMILES: CN(C)C1CC(Oc2ccc3nc(CNC(=O)C4(CC(=O)O)Cc5ccccc5C4)sc3c2)C1 (stereo not shown) [Example 79, 2-[2-[[6-[3-(dimethylamino)cyclobutoxy]-1,3-benzothiazol-2-yl]methylcarbamoyl]indan-2-yl]acetic acid]
- Ki [2]: 0.3 to 2 µM

SMILES: C[N+](C)(C)Cc1ccc2nc(CNC(=O)C3(CC(=O)[O-])Cc4ccccc4C3)sc2c1 [Example 82, 2-[2-[[6-[(trimethylammonio)methyl]-1,3-benzothiazol-2-yl]methylcarbamoyl]indan-2-yl]acetate]
- Ki [2]: 2 to 10 µM

SMILES: NC1CC(Oc2ccc3nc(CNC(=O)C4(CC(=O)O)Cc5ccccc5C4)sc3c2)C1 (mixture of isomers) [Example 78, 2-[2-[[6-(3-aminocyclobutoxy)-1,3-benzothiazol-2-yl]methylcarbamoyl]indan-2-yl]acetic acid]
- Ki [2]: 0.3 to 2 µM
